# Measured values as given in patent publication US10800752B2, “Substituted naphtho[2,3-b]furans as water-soluble prodrugs for preventing and/or treating cancer” (BOSTON BIOMEDICAL, INC., priority 2015, dated 2020).
# Tests used:
# Solubility test = details: 50 mmol/L glycine buffer solution (pH 2.0), room temperature, 24 hours shaking
# Procedure: A water-soluble prodrug was added into 50 mmol/L glycine buffer solution (pH 2.0). After shaking at room temperature for 24 hours, the mixture was filtered through a membrane filter, and then the filtrate was measured with HPLC.
# The measurement condition of HPLC is as described below. HPLC condition column: Acquity UPLC BEH C18, 1.7 um, 50×2.1 mm
# [1] = Evaluation of a conversion rate to 2-acetylnaphtho[2,3-b]furan-4,9-dione in pH 7.4 phosphate buffer solution; format: physicochemical; details: 1 umol/L, 37° C.
# Method in brief: (§1)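 Compounds at 1 umol/L were incubated at 37° C in human plasma, CD1 mouse plasma or pH 7.4 phosphate buffer, sampled up to 120 minutes, acid/acetonitrile-deproteinised and analysed by LC-MS (ESI positive). Conversion (%) derived from the peak area ratio of the active form to phenytoin internal standard.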
# [2] = Evaluation of a conversion rate to 2-acetylnaphtho[2,3-b]furan-4,9-dione in human plasma; format: in vitro ADME; details: 1 umol/L, 37° C.
# Method in brief: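 Compounds at 1 umol/L incubated at 37° C in human plasma, CD1 mouse plasma or pH 7.4 phosphate buffer, sampled up to 120 minutes. After acidified acetonitrile protein removal, parent loss and conversion to 2-acetylnaphtho[2,3-b]furan-4,9-dione measured by LC-MS (ESI positive).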
# [3] = Pharmacokinetics test, intravenous administration; details: for Plasma Compound Concentration: Activated form 1 in plasma, 9.6 mg/kg (i.v.)
# Procedure: For water-soluble prodrugs described in the EXAMPLES, the concentration of 2-acetylnaphtho[2,3-b]furan-4,9-dione (Activated form 1) in plasma was measured. Animal species, an administration method, a method of making standard solutions, and a method of measuring the concentration in plasma are as described below.
# Animal: Seven-week-aged male CD1 (ICR) mice were used as an experimental animal.
# Administration method: A test substance was weighed, and then dissolved in 50 mmol/L glycine buffered saline (pH 2.0) to produce an administration solution. The body weight of a mouse was measured, and the prepared administration solution was intravenously administered.
# Blood collecting method: Heparin was added to a blood-collecting vessel, and blood was collected from a mouse. To the obtained blood, 46% of Citric acid was added in 1% volume. It was then centrifuged to obtain plasma. To the collected plasma, 1 mol/L HCl was added in 10% volume to produce a plasma sample. A sample obtained by adding 10% volume of 1 mol/L HCl to blank plasma was used as a blank sample.
# Making of a standard solution: One mg of a test sample was weighed, and dissolved in 10 mL of acetonitrile using a measuring flask to make a standard solution of 100 ug/mL.
# Measurement of the concentration in plasma: One hundred ug/mL of the standard solution was diluted in 50% acetonitrile solution to make calibration curve samples of target concentrations. Twenty uL of a blank sample was added to 18 uL of the calibration curve sample to make a plasma calibration curve sample. Eighteen uL of 50% acetonitrile solution was added to 20 uL of the administered plasma sample to make a sample for plasma analysis. One hundred uL of acetonitrile (containing 1% volume of 10 mol/L HCl) containing an internal standard was added to the plasma calibration curve sample and the sample for plasma analysis, respectively. It should be noted that phenytoin was used as the internal standard and its concentration was prepared in 100 nmol/L. 10 uL of each sample was analyzed with LC-MS. A calibration curve was made from a value (peak ratio) of the peak area of a test substance in MS divided by the peak area of the internal standard, and the concentrations of plasma calibration curve samples. The concentration in a sample was calculated from the peak ratio of each sample and the calibration curve.
# [4] = Evaluation of a conversion rate to 2-acetylnaphtho[2,3-b]furan-4,9-dione in CD1 mouse plasma; format: in vitro ADME; details: CD1 mouse plasma, 1 umol/L, 37° C.
# Method in brief: as §1
# Solution stability test = format: physicochemical; details: for % Residual ratio: 25 umol/L
# Procedure: For Example 6, Example 11, and Example 22, the stability in each pH was measured. Test compounds at a concentration of 25 umol/L in respective buffer solutions prepared at pH 2.0, 3.0, 5.0, 7.4, and 9.0 were allowed to stand at 25° C. After 0, 3, 6, 9, 12, and 24 hours, they were measured with HPLC.
# The buffer solutions used at respective pHs are as described below. pH 2.0: 50 mmol/L glycine buffer solution pH 3.0: 50 mmol/L citrate buffer solution pH 5.0: 50 mmol/L citrate buffer solution pH 7.4: 50 mmol/L phosphate buffer solution pH 9.0: 50 mmol/L glycine buffer solution
# The measurement condition of HPLC is as described below.
# Column temperature: 40° C.
# Mobile phase: A: 0.1% trifluoroacetic acid-containing water
smiles,measurement,setting,value
CC(=O)c1cc2c(OC(=O)NC[C@H](N)C(=O)O)c3ccccc3c(OC(=O)NC[C@H](N)C(=O)O)c2o1.Cl.Cl [Example 6],Solubility in pH 2.0 buffer solution,Solubility test,2.8 mg/mL
same,% Measurement value of test compound (decrease rate),"[1]; Phosphate buffer solution (pH 7.4), incubation time 120 min",0%
same,% Measurement value of test compound (decrease rate),"[1]; phosphate buffer solution (pH 7.4), incubation time 0 min",100%
same,% Measurement value of test compound (decrease rate),"[1]; phosphate buffer solution (pH 7.4), incubation time 5 min",0%
same,% Measurement value of test compound (decrease rate),"[1]; phosphate buffer solution (pH 7.4), incubation time 10 min",0%
same,% Measurement value of test compound (decrease rate),"[1]; phosphate buffer solution (pH 7.4), incubation time 30 min",0%
same,% Measurement value of test compound (decrease rate),"[1]; phosphate buffer solution (pH 7.4), incubation time 60 min",0%
same,% Measurement value of test compound (decrease rate),"[2]; Human plasma, incubation time 120 min",0%
same,% Measurement value of test compound (decrease rate),"[2]; human plasma, incubation time 0 min",100%
same,% Measurement value of test compound (decrease rate),"[2]; human plasma, incubation time 5 min",0%
same,% Measurement value of test compound (decrease rate),"[2]; human plasma, incubation time 10 min",0%
same,% Measurement value of test compound (decrease rate),"[2]; human plasma, incubation time 30 min",0%
same,% Measurement value of test compound (decrease rate),"[2]; human plasma, incubation time 60 min",0%
same,Plasma Compound Concentration,"[3]; 0.083 hr, animal 1",4950 nM
same,Plasma Compound Concentration,"[3]; 0.083 hr, animal 2",5870 nM
same,Plasma Compound Concentration,"[3]; 0.083 hr, animal 3",5790 nM
same,Plasma Compound Concentration,"[3]; 0.083 hr, mean",5540 nM
same,Plasma Compound Concentration,"[3]; 0.5 hr, animal 1",1170 nM
same,Plasma Compound Concentration,"[3]; 0.5 hr, animal 2",1070 nM
same,Plasma Compound Concentration,"[3]; 0.5 hr, animal 3",1660 nM
same,Plasma Compound Concentration,"[3]; 0.5 hr, mean",1300 nM
same,Plasma Compound Concentration,"[3]; 1.0 hr, animal 1",530 nM
same,Plasma Compound Concentration,"[3]; 1.0 hr, animal 2",280 nM
same,Plasma Compound Concentration,"[3]; 1.0 hr, animal 3",380 nM
same,Plasma Compound Concentration,"[3]; 1.0 hr, mean",400 nM
same,Plasma Compound Concentration,"[3]; 2.0 hr, animal 1",250 nM
same,Plasma Compound Concentration,"[3]; 2.0 hr, animal 2",500 nM
same,Plasma Compound Concentration,"[3]; 2.0 hr, animal 3",410 nM
same,Plasma Compound Concentration,"[3]; 2.0 hr, mean",390 nM
same,"production of 2-acetylnaphtho[2,3-b]furan-4,9-dione (Activated form 1) (in words)",[3]; intravenously administered to mice,rapidly produced
same,% Measurement value of test compound (decrease rate),[4]; incubation time 0 min,100%
same,% Measurement value of test compound (decrease rate),[4]; incubation time 5 min,0%
same,% Measurement value of test compound (decrease rate),[4]; incubation time 10 min,0%
same,% Measurement value of test compound (decrease rate),[4]; incubation time 30 min,0%
same,% Measurement value of test compound (decrease rate),[4]; incubation time 60 min,0%
same,% Measurement value of test compound (decrease rate),[4]; incubation time 120 min,0%
same,stability in solution (in words),"Solution stability test; pH 2.0, 25° C.",very stable
same,% Residual ratio,"Solution stability test; pH 2.0, 25° C., 0 hr",100%
same,% Residual ratio,"Solution stability test; pH 2.0, 25° C., 3 hr",100%
same,% Residual ratio,"Solution stability test; pH 2.0, 25° C., 6 hr",100%
same,% Residual ratio,"Solution stability test; pH 2.0, 25° C., 9 hr",100%
same,% Residual ratio,"Solution stability test; pH 2.0, 25° C., 12 hr",100%
same,% Residual ratio,"Solution stability test; pH 2.0, 25° C., 24 hr",99.8%
same,stability in solution (in words),"Solution stability test; pH 3.0, 25° C.",sufficient stability
same,% Residual ratio,"Solution stability test; pH 3.0, 25° C., 0 hr",100%
same,% Residual ratio,"Solution stability test; pH 3.0, 25° C., 3 hr",99.0%
same,% Residual ratio,"Solution stability test; pH 3.0, 25° C., 6 hr",98.2%
same,% Residual ratio,"Solution stability test; pH 3.0, 25° C., 9 hr",97.5%
same,% Residual ratio,"Solution stability test; pH 3.0, 25° C., 12 hr",96.6%
same,% Residual ratio,"Solution stability test; pH 3.0, 25° C., 24 hr",93.6%
same,% Residual ratio,"Solution stability test; pH 5.0, 25° C., 0 hr",100%
same,% Residual ratio,"Solution stability test; pH 5.0, 25° C., 3 hr",27.3%
same,% Residual ratio,"Solution stability test; pH 5.0, 25° C., 6 hr",10.8%
same,% Residual ratio,"Solution stability test; pH 5.0, 25° C., 9 hr",3.6%
same,% Residual ratio,"Solution stability test; pH 5.0, 25° C., 12 hr",0%
same,% Residual ratio,"Solution stability test; pH 5.0, 25° C., 24 hr",0%
same,% Residual ratio,"Solution stability test; pH 7.4, 25° C., 0 hr",100%
same,% Residual ratio,"Solution stability test; pH 7.4, 25° C., 3 hr",0%
same,% Residual ratio,"Solution stability test; pH 7.4, 25° C., 6 hr",0%
same,% Residual ratio,"Solution stability test; pH 7.4, 25° C., 9 hr",0%
same,% Residual ratio,"Solution stability test; pH 7.4, 25° C., 12 hr",0%
same,% Residual ratio,"Solution stability test; pH 7.4, 25° C., 24 hr",0%
same,% Residual ratio,"Solution stability test; pH 9.0, 25° C., 0 hr",100%
same,% Residual ratio,"Solution stability test; pH 9.0, 25° C., 3 hr",0%
same,% Residual ratio,"Solution stability test; pH 9.0, 25° C., 6 hr",0%
same,% Residual ratio,"Solution stability test; pH 9.0, 25° C., 9 hr",0%
same,% Residual ratio,"Solution stability test; pH 9.0, 25° C., 12 hr",0%
same,% Residual ratio,"Solution stability test; pH 9.0, 25° C., 24 hr",0%
